Measurements: US9981940B2, “Aryl sulfide derivatives and aryl sulfoxide derivatives as acaricides and insecticides” (BAYER CROPSCIENCE AKTIENGESELLSCHAFT, priority 2013, dated 2018)

Experiments:
[1] = system: Boophilus microplus; assay: Boophilus microplus injection test (BOOPMI Inj); type: in vivo; conditions: application rate of 20 μg/animal, assessed after 7 days by laying of fertile eggs
How it was run: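 Engorged adult female ticks (5 per test) injected in the abdomen with 1 μl of compound solution in DMSO, then held in a climate-controlled room. Efficacy scored after 7 days from fertile egg laying, with 100% meaning no fertile eggs and 0% all eggs fertile.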

[2] = system: Tetranychus urticae; assay: Tetranychus urticae spray test, OP-resistant (TETRUR); type: in vivo; conditions: application rate of 500 g/ha, after 6 days
How it was run: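 Bean leaf discs infested with all stages of an OP-resistant Tetranychus urticae strain sprayed with compound in acetone/DMF with alkylaryl polyglycol ether emulsifier, diluted in water. Efficacy in % scored after 6 days; 100% means all mites killed.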

[3] = system: Meloidogyne incognita; assay: Meloidogyne incognita test (MELGIN); type: in vivo; conditions: application rate of 20 ppm; after 14 days, by formation of galls
Method: Meloidogyne Incognita Test (MELGIN)
• Solvent: 125.0 parts by weight of acetone
To produce an appropriate active ingredient formulation, 1 part by weight of active ingredient is mixed with the specified amounts of solvent and the concentrate is diluted to the desired concentration with water.
Vessels are filled with sand, active ingredient solution, an egg/larvae suspension of the southern root-knot nematode (Meloidogyne incognita) and lettuce seeds. The lettuce seeds germinate and the plants develop. The galls develop on the roots
After 14 days, the nematicidal efficacy in % is determined by the formation of galls. 100% means that no galls have been found; 0% means that the number of galls on the treated plants corresponds to the untreated control.

[4] = log P by HPLC (OECD Guideline 117), method [a] acidic range; type: physicochemical; conditions: for logP[a]: HPLC, method [a] acidic range; for chromatographic logP: reversed-phase C18 HPLC column, acidic range
Method: (§1) The log P values were determined analogously to OECD Guideline 117 (EC Directive 92/69/EEC) by HPLC (high-performance liquid chromatography) using reversed-phase columns (C 18), by the following methods:
[a] The LC-MS determination in the acidic range is effected at pH 2.7 with 0.1% aqueous formic acid and acetonitrile (contains 0.1% formic acid) as eluents; linear gradient from 10% acetonitrile to 95% acetonitrile.

[5] = log P by HPLC (OECD Guideline 117), method [b] neutral range; type: physicochemical; conditions: HPLC; for logP[b]: method [b] neutral range
Method: as §1
[b] The LC-MS determination in the neutral range is effected at pH 7.8 with 0.001 molar aqueous ammonium hydrogencarbonate solution and acetonitrile as eluents; linear gradient from 10% acetonitrile to 95% acetonitrile.

[6] = system: Phaedon cochleariae; assay: Phaedon cochleariae spray test (PHAECO); type: in vivo; conditions: application rate of 500 g/ha, after 7 days
Method: Phaedon cochleariae—Spray Test (PHAECO)
• Solvent: 78.0 parts by weight of acetone • 1.5 parts by weight of dimethylformamide • Emulsifier: 0.5 part by weight of alkylaryl polyglycol ether
(§2) To produce an appropriate active ingredient formulation, 1 part by weight of active ingredient is mixed with the specified amounts of solvent and emulsifier, and the concentrate is diluted to the desired concentration with emulsifier-containing water.
Discs of Chinese cabbage leaves (Brassica pekinensis) are sprayed with an active ingredient formulation of the desired concentration and, after drying, populated with larvae of the mustard beetle (Phaedon cochleariae).
After 7 days, the efficacy in % is determined 100% means that all beetle larvae have been killed; 0% means that none of the beetle larvae have been killed.

[7] = system: Myzus persicae; assay: Myzus persicae spray test (MYZUPE); type: in vivo; conditions: application rate of 500 g/ha; after 6 days
Method: Myzus persicae—Spray Test (MYZUPE)
• Solvent: 78 parts by weight of acetone • 1.5 parts by weight of dimethylformamide • Emulsifier: 0.5 part by weight of alkylaryl polyglycol ether
as §2
Discs of Chinese cabbage leaves (Brassica pekinensis) infested by all stages of the green peach aphid (Myzus persicae) are sprayed with an active ingredient formulation of the desired concentration.
After 6 days, the activity in % is determined 100% means that all the aphids have been killed; 0% means that none of the aphids have been killed.

Compound	logP[a] [4]	logP[b] [5]	chromatographic logP ([4]; pH 2.7, HPLC method [a], read-out: logP[a])	chromatographic logP ([4]; pH 2.7, HPLC, pH 2.7, read-out: log P[a])	chromatographic logP ([5]; reversed-phase C18 HPLC column, neutral range, pH 7.8)	efficacy [1]	efficacy [2]	nematicidal efficacy [3]	efficacy [6]	efficacy [7]	pest or weed control at 500 g/ha ([6]; Phaedon cochleariae, 168 h, read-out: efficacy)	pest or weed control at 500 g/ha ([2]; Tetranychus urticae, 144 h, read-out: efficacy)
Cc1cc(F)c(-n2nc(-c3ccc(Cl)cc3F)n(C)c2=O)cc1SCC(F)(F)F [Example 40]	4.06	3.96					100%	100%				
Cc1cc(F)c(-n2ncn(C3CC3)c2=O)cc1SCC(F)(F)F [Example 61]	2.62	2.59					100%	100%				
Cc1cc(F)c(-n2nc(OCC(F)(F)F)n(C3CC3)c2=O)cc1SCC(F)(F)F [Example 103]	3.80	3.72				100%	100%	100%				
COc1nn(-c2cc([S+]([O-])CC(F)(F)F)c(C)cc2F)c(=O)n1C1CC1 (stereo not drawn) [Example 104]	2.13	2.08				100%	100%	90%				
COc1nn(-c2cc(SCC(F)(F)F)c(C)cc2F)c(=O)n1C1CC1 [Example 105]	3.16	3.11				100%	100%	90%				
CCC(C)Oc1nn(-c2cc(SCC(F)(F)F)c(C)cc2F)c(=O)n1C1CC1 (stereo not drawn) [Example 140]	4.36	4.30					100%	90%				
Cc1cc(F)c(-n2nc(OCC(C)(C)C)n(C)c2=O)cc1SCC(F)(F)F [Example 150]	4.35	4.29					100%	90%				
CC(CC(C)C)=Nn1c(C)nn(-c2cc(SCC(F)(F)F)c(C)cc2F)c1=O [Example 202]	4.06	3.98					100%	100%				
Cc1cc(F)c(-n2nnn(CC(F)(F)F)c2=O)cc1SCC(F)(F)F [Example 304]	3.61	3.48					100%	100%				
COC1=CC(=O)N(c2ccc(C#N)c(SCC(F)(F)F)c2)C1 [Example 320]	2.45	2.43							100%	90%		
Cc1cc(F)c(N2CC(OCC3CC3)=CC2=O)cc1SCC(F)(F)F [Example 331]	3.64	3.58					90%	90%	83%			
Cc1cc(F)c(N2CC(OCC3CC3)=CC2=O)cc1[S+]([O-])CC(F)(F)F (stereo not drawn) [Example 332]	2.55	2.50					90%	90%	83%			
Cc1cc(F)c(-n2nnn(CC(F)(F)C(F)(F)F)c2=O)cc1SCC(F)(F)F [Example 444]	4.09	4.04					100%	90%				
CCc1nn(-c2cc(SCC(F)(F)F)c(C)cc2F)c(=S)n1C1CC1 [Example 502]	3.69	3.65					90%	90%	83%			

The next lines start with results.

logP[a] [4]	logP[b] [5]	chromatographic logP ([4]; pH 2.7, HPLC method [a], read-out: logP[a])	chromatographic logP ([4]; pH 2.7, HPLC, pH 2.7, read-out: log P[a])	chromatographic logP ([5]; reversed-phase C18 HPLC column, neutral range, pH 7.8)	Compound	efficacy [1]	efficacy [2]	nematicidal efficacy [3]	efficacy [6]	efficacy [7]	pest or weed control at 500 g/ha ([6]; Phaedon cochleariae, 168 h, read-out: efficacy)	pest or weed control at 500 g/ha ([2]; Tetranychus urticae, 144 h, read-out: efficacy)
2.57	2.51				Cc1cc(F)c(-n2nnn(CC(F)(F)F)c2=O)cc1[S+]([O-])CC(F)(F)F (racemic) [Example 305]	100%	100%	100%				
2.97	2.91				Cc1cc(F)c(-n2nc(-c3ccc(Cl)cc3F)n(C)c2=O)cc1[S+]([O-])CC(F)(F)F (stereo not drawn) [Example 39]		90%	90%				
2.54	2.52				COc1nn(-c2ccc(Cl)c([S+]([O-])CC(F)(F)F)c2)c(=O)n1C (stereo not drawn) [Example 99]	100%	90%	90%				
2.83	2.77				Cc1cc(F)c(-n2nc(OCC(F)(F)F)n(C3CC3)c2=O)cc1[S+]([O-])CC(F)(F)F (stereo not drawn) [Example 102]	100%	100%	100%				
2.65	2.61				COc1nn(-c2cc([S+]([O-])CC(F)(F)F)c(Cl)cc2Cl)c(=O)n1C1CC1 (stereo not drawn) [Example 106]	100%	100%	90%	100%			
2.45	2.43				COc1nn(-c2cc([S+]([O-])CC(F)(F)F)c(Cl)cc2F)c(=O)n1C1CC1 (stereo not drawn) [Example 115]	100%	100%	90%				
3.20	3.30				COc1nn(-c2cc(SCC(F)(F)F)c(C)cc2Cl)c(=O)n1C1CC1 [Example 116]	100%	90%	100%				
2.28	2.30				COc1nn(-c2cc([S+]([O-])CC(F)(F)F)c(C)cc2Cl)c(=O)n1C1CC1 (stereo not drawn) [Example 117]	100%	90%	100%				
2.90	2.85				CCCCOc1nn(-c2cc([S+]([O-])CC(F)(F)F)c(C)cc2F)c(=O)n1C (stereo not drawn) [Example 146]		100%	90%				
2.52	2.38				Cc1cc(F)c(-n2nc(OCC(F)(F)F)n(C)c2=O)cc1[S+]([O-])CC(F)(F)F (stereo not drawn) [Example 160]	100%	100%	100%				
3.16	3.09				Cc1cc(F)c(-n2nc(C(F)(F)F)n(N(C)C)c2=O)cc1[S+]([O-])CC(F)(F)F (stereo not drawn) [Example 213]		90%	90%				
		1.83	1.83	1.84	COC1=CC(=O)N(c2cc([S+]([O-])CC(F)(F)F)c(C)cc2F)C1 (stereo not drawn) [Example 311, 1-{2-Fluoro-4-methyl-5-[(2,2,2-trifluoroethyl)sulphinyl]phenyl}-4-methoxy-1,5-dihydro-2H-pyrrol-2-one]	100%				90%	100%	100%
2.48	2.45				COc1nn(-c2cc([S+]([O-])CC(F)(F)F)c(C)cc2F)c(=O)n1CC(F)(F)F (stereo not drawn) [Example 415]	100%	90%	100%				
2.34	2.37				C=CCn1c([S+]([O-])CCC)nn(-c2cc([S+]([O-])CC(F)(F)F)c(C)cc2F)c1=O (stereo not drawn) [Example 423]	100%	90%			90%		
